# Assay results from patent US7091189B2, “Medicament for treating lung cancer” (Dainippon Sumitomo Pharma Co., Ltd., priority 2002, dated 2006).
# Structures can show the parent of a compound that is named as a salt. Where two headings read alike, the source gives them in different places.
# Experiments:
# [1] = system: human squamous cell lung carcinoma QC-56 cell strain; experiment: Antitumor activity in nude mice with transplanted QC-56 (amrubicin hydrochloride and gemcitabine); format: in vivo; conditions: single agent at maximum tolerated dose (amrubicin hydrochloride 25 mg/kg; gemcitabine 300 mg/kg i.p. 2q7d)
# Description: (§1) Human small cell lung cancer LX-1 cell strain was subcutaneously transplanted to nude mice (59 animals) at 6 weeks of age. After 11 days from the tumor transplantation, 36 animals having a tumor volume of about 100 to 300 mm^3 were allotted to 6 groups consisting of 6 animals per group. […] Thereafter, tumor volume and body weight of the mice were measured for 23 days.
# (§2) Minimum T/C %: the minimum value of ratio (%) of tumor growth rate^*) for respective administration groups to tumor growth rate^*) for the vehicle administration group within the period for measurement. ^*)Tumor growth rate: a ratio of an average value of tumor volume for a group of 6 animals at respective point in time of measurement to an average value of tumor volume for a group of 6 animals at respective point in time of drug administration.
# (§3) Antitumor activity by a combination of amrubicin hydrochloride and vinorelbine was tested in the same way as Example 1, except that human squamous cell lung carcinoma QC-56 cell strain was used in place of human small cell lung cancer LX-1 cell strain and that the maximum tolerated dose of vinorelbine was set at 16 mg/kg. Vinorelbine was administered by giving 16, 12.8 or 8 ml/kg aliquot of Navelbine Injection (containing 10 mg/ml), purchased from Kyowa Hakko Kogyo Co., Ltd., as the maximum tolerated dose, the 0.8 times dose or the 0.5 times dose of vinorelbine. In addition, nude mice (100 animals) at 5 weeks of age were used.
# Antitumor activity by a combination of amrubicin hydrochloride and gemcitabine was tested in the same way as Example 2, except that the maximum tolerated dose of gemcitabine was set at 300 mg/kg/day and the administration was intraperitoneally once per week in two cycles. Gemcitabine was administered by giving […] aliquot of Gemzar Injection (containing 200 mg/bial), purchased from Eli Lilly Japan K.K., as the maximum tolerated dose, the 0.8 times dose or the 0.5 times dose of gemcitabine. In addition, nude mice (80 animals) at 5 weeks of age were used.
# [2] = humans, cited from earlier work
# [3] = mice, cited from earlier work
# [4] = humans, cited from earlier work; remark: listed apart in the source
# [5] = system: human squamous cell lung carcinoma QC-56 cell strain; experiment: Antitumor activity in nude mice with transplanted QC-56 (amrubicin hydrochloride and vinorelbine); format: in vivo; conditions: single agent at maximum tolerated dose (amrubicin hydrochloride 25 mg/kg; vinorelbine 16 mg/kg)
# Description: as §1, §2, §3
# [6] = rabbit chronic experimental model, compared with doxorubicin; Invest. New Drug, 15, 219–225 (1997); cited from earlier work
# [7] = system: Human small cell lung cancer LX-1 cell strain; experiment: Antitumor activity in nude mice with subcutaneously transplanted LX-1 (amrubicin hydrochloride and irinotecan); format: in vivo; conditions: single agent at maximum tolerated dose, intravenous (amrubicin hydrochloride 25 mg/kg; irinotecan 120 mg/kg), tumor volume measured for 23 days
# tumor cells = conditions: compared with amrubicin; Cancer Chemothr. Pharmacol., 30, 51–57 (1992); cited from earlier work
# [8] = listed as amrubicin hydrochloride
smiles,measurement,setting,value
Nc1ccn([C@@H]2O[C@H](CO)[C@@H](O)C2(F)F)c(=O)n1 [Gemcitabine],Minimum T/C(%) Average ± SD,[1],69.47 ± 26.06%
same,Minimum T/C(%) Average ± SD,[1]; listed as gemcitabine,69.47%
same,maximum administered dose,[2],1000 mg/m^2
same,maximum tolerated dose,[3],300 mg/kg/dose
"COc1cc2ncnc(Nc3ccc(F)c(Cl)c3)c2cc1OCCCN1CCOCC1 [ZD 1839, 4-(3-chloro-4-fluoroanilino)-7-methoxy-6-(3-morpholinopropoxy)quinazoline]",maximum tolerated dose,[3],200 mg/kg
same,maximum tolerated dose,[4],700 mg/day
CCC1=C[C@@H]2CN(C1)Cc1c([nH]c3ccccc13)[C@@](C(=O)OC)(c1cc3c(cc1OC)N(C)[C@H]1[C@@](O)(C(=O)OC)[C@H](OC(C)=O)[C@]4(CC)C=CCN5CC[C@]31[C@@H]54)C2 [Vinorelbine],Minimum T/C(%) Average ± SD,[5],38.24 ± 12.87%
same,Minimum T/C(%) Average ± SD,[5]; listed as vinorelbine,38.24%
same,maximum administered dose,[2],25 mg/m^2
same,maximum tolerated dose,[3],16 mg/kg
"CC(=O)[C@]1(N)Cc2c(O)c3c(c(O)c2[C@@H](O[C@H]2C[C@H](O)[C@H](O)CO2)C1)C(=O)c1ccccc1C3=O [amrubicin, (+)-(7S,9S)-9-acetyl-9-amino-7-[(2-deoxy-β-D-erythro-pentopyranosyl)oxy]-7,8,9,10-tetrahydro-6,11-dihydroxy-5,12-naphthacenedione]",cardiac toxicity,[6],far weaker than doxorubicin
CC(=O)[C@]1(N)Cc2c(O)c3c(c(O)c2[C@@H](OC2CC(O)C(O)CO2)C1)C(=O)c1ccccc1C3=O (stereo partly drawn) [Amrubicin hydrochloride],Minimum T/C(%) Average ± SD,[7],40.79 ± 5.92%
same,Minimum T/C(%) Average ± SD,[7]; [8],40.79%
same,Minimum T/C(%) Average ± SD,[5],37.73 ± 7.56%
same,Minimum T/C(%) Average ± SD,[5]; [8],37.73%
same,Minimum T/C(%) Average ± SD,[1],51.06 ± 16.56%
same,Minimum T/C(%) Average ± SD,[1]; [8],51.06%
same,maximum tolerated dose,[3]; expressed per body surface,75 mg/m^2
same,maximum tolerated dose,[3],25 mg/kg
same,maximum tolerated dose,[4]; administration in 3 continuous days,50 mg/m^2 per day
same,maximum tolerated dose,[4]; once a day single dose,130 mg/m^2
CCc1c2c(nc3ccc(OC(=O)N4CCC(N5CCCCC5)CC4)cc13)-c1cc3c(c(=O)n1C2)COC(=O)[C@]3(O)CC [Irinotecan],maximum administered dose,[2]; at intervals of 3 weeks,350 mg/m^2
same,maximum administered dose,[2]; at intervals of a week,150 mg/m^2
CC(O)[C@]1(N)Cc2c(O)c3c(c(O)c2[C@@H](O[C@H]2C[C@H](O)[C@H](O)CO2)C1)C(=O)c1ccccc1C3=O (stereo partly drawn) [amrubicinol],inhibitory activity against growth of tumor cells,tumor cells,considerably stronger inhibitory activity against growth of tumor cells than that of amrubicin
CC(=O)O[C@@]12CO[C@@H]1C[C@H](O)[C@@]1(C)C(=O)[C@H](O)C3=C(C)[C@@H](OC(=O)[C@H](O)[C@@H](NC(=O)OC(C)(C)C)c4ccccc4)C[C@@](O)([C@@H](OC(=O)c4ccccc4)[C@H]21)C3(C)C [docetaxel],maximum administered dose,[2],70 mg/m^2
same,maximum tolerated dose,[3],30 mg/kg/dose
CC(=O)O[C@H]1C(=O)[C@@]2(C)[C@H]([C@H](OC(=O)c3ccccc3)[C@]3(O)C[C@H](OC(=O)[C@H](O)[C@@H](NC(=O)c4ccccc4)c4ccccc4)C(C)=C1C3(C)C)[C@]1(OC(C)=O)CO[C@@H]1C[C@@H]2O [paclitaxel],maximum tolerated dose,[3],12.5 mg/kg/dose
